Each structure is given as a SMILES string.

Consider six compounds from patent US20240285614A1, “PHENOL RIBONUCLEOTIDE REDUCTASE (RNR) INHIBITORS AND USES THEREOF” (Boundless Bio, Inc., priority 2023, published 2024).

Assay [1] has as its system pCHK1 (S345) in Colo320 DM cells. The experiment in a line: Alphalisa assay, detection of pCHK1 (S345) in Colo320 DM cells. Type of assay: cell-based. Conditions: Homo sapiens, COLO 320DM, compound incubation overnight (approximately 16 hours). The procedure: Colo320 DM cells (ATCC #CCL-220, derived from human colorectal adenocarcinoma, Dukes' type C) were seeded on a 96-well, cell culture treated assay plate at a density of 50,000 cells/well in 200 μL of RPMI-1640 media supplemented with 10% Fetal Bovine Serum and incubated at 37° C. overnight. The following day, test compound dilutions were added directly to the plated cells by a Tecan digital dispenser to a final DMSO concentration of <0.5%, and incubated at 37° C. overnight (approximately 16 hours). The following day all cull culture media was removed from the cells. 75 μL of 1× AlphaLisa lysis buffer was added to each well and plates were agitated on a shaker for 30 minutes at room temperature. The lysis of cells and detection of pCHK1 (S345) were performed with regents contained within the AlphaLisa Sure Fire assay kit (Perkin Elmer #ALSU-PCHK1-A) according to the manufacturer's instructions. 10 μL of each lysate was then transferred to a white, 384-well assay plate (Perkin Elmer #6008280), 5 μL of Acceptor mix was then added to each well of lysate in the white, 384-well assay plate and incubated in the dark at room temperature for 60 minutes. 5 μL of Donor mix was then added to each well of the white, 384-well assay plate in subdued light and incubated at room temperature for 60 minutes. Plates were read on an Alpha Technology-compatible plate reader using standard AlphaLisa settings.

Assay [2] addresses T1, RNR (RNR1:RNR2 1:1) (Homo sapiens, UniProt P23921+P31350).
T1 sequence (P23921 1-792): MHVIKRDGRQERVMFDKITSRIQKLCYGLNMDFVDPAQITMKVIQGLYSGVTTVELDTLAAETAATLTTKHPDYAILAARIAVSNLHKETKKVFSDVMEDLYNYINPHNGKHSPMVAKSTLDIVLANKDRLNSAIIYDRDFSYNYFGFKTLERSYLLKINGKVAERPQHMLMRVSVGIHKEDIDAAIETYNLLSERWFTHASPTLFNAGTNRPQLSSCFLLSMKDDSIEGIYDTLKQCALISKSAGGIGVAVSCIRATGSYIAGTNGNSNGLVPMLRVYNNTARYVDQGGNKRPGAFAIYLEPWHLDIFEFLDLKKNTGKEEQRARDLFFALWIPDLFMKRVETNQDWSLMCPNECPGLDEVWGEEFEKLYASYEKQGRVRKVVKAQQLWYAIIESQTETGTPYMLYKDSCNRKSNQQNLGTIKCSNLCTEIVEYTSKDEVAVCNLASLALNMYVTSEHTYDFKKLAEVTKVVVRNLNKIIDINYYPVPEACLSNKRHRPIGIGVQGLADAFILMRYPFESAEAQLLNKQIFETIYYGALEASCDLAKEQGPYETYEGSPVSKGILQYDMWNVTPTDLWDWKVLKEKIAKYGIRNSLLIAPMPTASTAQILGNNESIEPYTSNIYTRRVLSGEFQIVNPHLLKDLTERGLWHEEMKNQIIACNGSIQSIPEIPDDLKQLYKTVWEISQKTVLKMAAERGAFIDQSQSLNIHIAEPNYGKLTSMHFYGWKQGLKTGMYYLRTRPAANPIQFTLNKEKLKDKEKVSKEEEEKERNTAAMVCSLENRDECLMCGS
T1 sequence (P31350 1-389): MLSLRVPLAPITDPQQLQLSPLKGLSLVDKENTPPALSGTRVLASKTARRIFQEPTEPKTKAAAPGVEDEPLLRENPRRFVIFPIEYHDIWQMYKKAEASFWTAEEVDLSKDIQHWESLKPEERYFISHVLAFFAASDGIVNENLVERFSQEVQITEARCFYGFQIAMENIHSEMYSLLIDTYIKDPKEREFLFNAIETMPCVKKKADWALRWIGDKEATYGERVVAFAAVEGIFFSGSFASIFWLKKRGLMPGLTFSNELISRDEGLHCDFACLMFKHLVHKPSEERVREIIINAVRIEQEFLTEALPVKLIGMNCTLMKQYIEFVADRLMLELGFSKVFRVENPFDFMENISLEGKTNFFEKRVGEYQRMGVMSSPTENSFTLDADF
The experiment in a line: RNR enzyme activity, rapid-fire mass spectrometry (RF/MS) assay. The format is biochemical. Conditions: RNR 50 nM, 1:1 (RNR1:RNR2); CDP 5 μM; ATP 1 mM; 37° C., 45 min; compounds screened up to 50 μM. The procedure:
A rapid-fire mass spectrometry (RF/MS) assay was used to assess RNR enzyme activity using a 384 well plate and a robotic platform.
The plate layout included two validated reference compounds (Triapine (3-AP) and Hydroxyurea (HU)): • A dose response in duplicate, top concentration: 5 μM (3-AP) and 250 μM (HU), semi-log • dilutions. • Spike wells in triplicate randomly spotted at four concentrations: • 250 μM, 100 μM, 30 μM and 2 μM for HU • 5 μM, 2 μM, 0.6 μM and 0.04 μM for 3-AP
First, the multidrop pipes were saturated for 30 minutes with enzymatic solution. Then 30 μL of Stop solution was distributed in column 24. Next, 15 μL of enzyme was distributed in column 1 to 24. Next, a pre-incubation step of 15 minutes at room temperature occurred, followed by distribution of 15 μL of substrate solution (column 1 to 24). Next, the plate was incubated for 45 minutes at 37° C. 30 μL of Stop solution was distributed to columns 1 to 23.
The final parameters for the enzyme reactions were: • Incubation: 37° C., 45 min • [CDP]: 5 μM: [ATP]: 1 mM; [NADPH]: No • [RNR]final: 50 nM with 1:1 (RNR1:RNR2) ratio • Final volume: 30 μL • Stop solution: 6% HCOOH containing 2 μM of 15

Regarding `O=S(=O)(c1ccc2cc[nH]c2c1)N1CC(O)C(Nc2ccc(O)cc2)C1` (stereo not drawn) [compound 44, 1-((1H-indol-6-yl)sulfonyl)-4-((4-hydroxyphenyl)amino) pyrrolidin-3-ol], the figures for the IC50 in assay [1] and in assay [2] were 5000 to 10000 nM and 50 to 100 nM, respectively.
Regarding `CN(CC1CCN1S(=O)(=O)c1ccc2cc[nH]c2c1)c1ccc(O)cc1` (stereo not drawn) [compound 45, 4-(((1-((1H-indol-6-yl)sulfonyl)azetidin-2-yl)methyl)(methyl)amino) phenol], the figures for the half-maximal inhibitory concentration (IC50) in assay [1] and in assay [2] were 5000 to 10000 nM and 50 to 100 nM, respectively.
Take `O=S(=O)(c1ccc2cc[nH]c2c1)N1CCN(c2ccc(O)cc2)CC12CCC2` [compound 46, 4-(5-((1H-indol-6-yl)sulfonyl)-5,8-diazaspiro[3.5]nonan-8-yl)phenol]: the IC50 in assay [1] is 1000 to 5000 nM; in assay [2] it was 50 to 100 nM.
The corresponding values for `O=S(=O)(c1cc2ccccc2[nH]1)N1CCC2(CCN(c3ccc(O)cc3)CC2)C1` [compound 47, 4-(2-((1H-indol-2-yl)sulfonyl)-2,8-diazaspiro[4.5]decan-8-yl)phenol] are 10000 to 50000 nM and 100 to 500 nM.
As to `O=S(=O)(c1ccc2cc[nH]c2c1)N1CC[C@H](N(Cc2cccnc2)c2ccc(O)cc2)C1` [compound 50, (S)-4-((1-((1H-indol-6-yl)sulfonyl)pyrrolidin-3-yl)(pyridin-3-ylmethyl)amino)phenol], the IC50 in assay [1] is 10000 to 50000 nM; in assay [2], 100 to 500 nM.
With `O=S(=O)(c1ccc2cc[nH]c2c1)N1CC2CN(c3ccc(O)cc3)CCC21` (stereo not drawn) [compound 51, 4-(7-((1H-indol-6-yl)sulfonyl)-3,7-diazabicyclo[4.2.0]octan-3-yl)phenol], the results for the 50% inhibitory concentration (IC50) in assay [1] and in assay [2] were 5000 to 10000 nM and 100 to 500 nM, respectively.
